For one series, the target named is human GlyT1c transporter (Homo sapiens (Human), UniProt P48067). Put plainly: Radioligand binding assay using recombinant CHO cell membranes expressing human GlyT1. The settings on record: examples marked * tested as fumarate salts, read-out: radioligand binding Kiapp.
Series [1] is described as follows: Metabolic stability in human liver microsomes. The series is classed as in vitro ADME. The settings on record: 0.5 μM test substance, NADPH, 37° C., scaled microsomal clearance, examples marked * tested as fumarate salts. On the procedure: Metabolic stability was determined as follows:
0.5 μM test substance was preincubated together with human liver microsomes (0.25 mg of microsomal protein/[…]) in 0.05 M potassium phosphate buffer of pH 7.4 in microtiter plates at 37° C. for 5 min. The reaction was started by adding NADPH (1.0 mM). After 0, 5, 10, 15, 20 and 30 min the reaction was stopped and cooled with twice the amount of quench solution consisting of acetonitrile/methanol 1:1, and containing 0.2 μM carbutamide. The samples were frozen until analyzed. The remaining concentration of undegraded test substance was determined by LC MSMS. The half-life (T1/2) was determined from the gradient of the signal of test substance/unit time plot, al-lowing to calculate the half-life of the test substance, assuming first order kinetics, from the de-crease in the concentration of the compound with time. The microsomal clearance (mClint) was calculated as follows: mClint=((ln(2)/t1/2)/Microsomal Protein Concentration (mg/ml))*1000, leading to the unit of uL/min/mg. The scaled clearance (mClin_scaled) was calculated as mCLint_scaled=m CLint*(Microsomal Yield (mg/kg BW))/1000000*60, leading to the units L/hr/kg. The Microsomal Yield is defined by the specifics of the used microsomes. Calculations were modified from references: Di, The Society for Biomolecular Screening, 2003, 453-462; Obach, DMD, 1999 vol 27. N 11, 1350-1359.
On the technique in general: Liver microsomes are a subcellular fraction often used to study metabolism.

Sequence of human GlyT1c transporter (P48067 whole entry): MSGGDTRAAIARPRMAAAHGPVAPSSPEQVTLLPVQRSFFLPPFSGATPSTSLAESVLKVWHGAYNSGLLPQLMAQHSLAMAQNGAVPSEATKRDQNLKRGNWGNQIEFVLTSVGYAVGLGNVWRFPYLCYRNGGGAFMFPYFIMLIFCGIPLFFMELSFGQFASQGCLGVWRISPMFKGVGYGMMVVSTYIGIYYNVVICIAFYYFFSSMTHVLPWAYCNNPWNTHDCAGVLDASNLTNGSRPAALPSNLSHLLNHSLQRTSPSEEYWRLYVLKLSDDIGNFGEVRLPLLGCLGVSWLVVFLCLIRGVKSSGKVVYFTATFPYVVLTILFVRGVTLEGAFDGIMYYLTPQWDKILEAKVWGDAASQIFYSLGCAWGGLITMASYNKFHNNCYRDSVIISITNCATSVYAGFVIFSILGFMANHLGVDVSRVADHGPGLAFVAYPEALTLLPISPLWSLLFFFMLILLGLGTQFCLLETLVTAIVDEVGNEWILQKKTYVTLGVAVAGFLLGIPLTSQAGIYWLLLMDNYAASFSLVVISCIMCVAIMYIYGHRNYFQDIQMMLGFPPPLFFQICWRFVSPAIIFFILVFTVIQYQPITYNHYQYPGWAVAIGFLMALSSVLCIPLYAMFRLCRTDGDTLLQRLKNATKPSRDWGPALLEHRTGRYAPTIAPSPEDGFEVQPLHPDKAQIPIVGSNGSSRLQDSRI

`CNC1COc2cc(F)c(N3CC(NS(=O)(=O)CC4CC4)C3)cc2C1Cc1ccccc1` (single isomer, unassigned) [Example 19a, Cis-N-(1-(4-benzyl-7-fluoro-3-(methylamino)chroman-6-yl)azetidin-3-yl)-1-cyclopropylmethanesulfonamide]: the Ki at human GlyT1c transporter is not above 10 nM.
On to `CCCS(=O)(=O)NC1CN(c2cc3c(cc2F)OC[C@H](NC)[C@@H]3Cc2ccccc2)C1` (relative stereo) [Example 16a, Cis-N-(1-(4-benzyl-7-fluoro-3-(methylamino)chroman-6-yl)azetidin-3-yl)propane-1-sulfonamide], for which the “human mCl” value in series [1] is on record as “≦5 L/h/Kg”.
The same measure, in the same setting: next, `CN[C@H]1COc2cc(F)c(N3CC(NS(=O)(=O)c4cn(C)cn4)C3)cc2[C@@H]1Cc1ccccc1` (relative stereo) [Example 15b, trans-N-(1-(4-benzyl-7-fluoro-3-(methylamino)chroman-6-yl)azetidin-3-yl)-1-methyl-1H-imidazole-4-sulfonamide]: “≦5 L/h/Kg”.
In the case of `CNC1COc2cc(F)c(N3CC(NS(=O)(=O)CC4CC4)C3)cc2C1Cc1ccccc1` (single isomer, unassigned) [Example 19b, trans-N-(1-(4-benzyl-7-fluoro-3-(methylamino)chroman-6-yl)azetidin-3-yl)-1-cyclopropylmethanesulfonamide], the Ki on human GlyT1c transporter was not above 10 nM.
With `CN[C@H]1COc2cc(F)c(N3CC(NS(=O)(=O)c4cn(C)nn4)C3)cc2[C@@H]1Cc1ccccc1` (relative stereo) [Example 18b, trans-N-(1-(4-benzyl-7-fluoro-3-(methylamino)chroman-6-yl)azetidin-3-yl)-1-methyl-1H-1,2,3-triazole-4-sulfonamide], the “human mCl” value in series [1] is “≦5 L/h/Kg”.
Take `CNC1COc2cc(F)c(N3CC(NS(=O)(=O)c4cnn(C)c4)C3)cc2C1Cc1ccccc1` (single isomer, unassigned) [Example 17b, trans-N-(1-(4-benzyl-7-fluoro-3-(methylamino)chroman-6-yl)azetidin-3-yl)-1-methyl-1H-pyrazole-4-sulfonamide]: the Ki at human GlyT1c transporter was not above 10 nM.
Turning to `CN[C@H]1COc2cc(F)c(N3CC(NS(=O)(=O)c4cnn(C)c4)C3)cc2[C@H]1Cc1ccccc1` (relative stereo) [Example 17a, Cis-N-(1-(4-benzyl-7-fluoro-3-(methylamino)chroman-6-yl)azetidin-3-yl)-1-methyl-1H-pyrazole-4-sulfonamide], the “human mCl” value in series [1] is on record as “≦5 L/h/Kg”.
Still for that read-out and setting: the result for `CN[C@H]1COc2cc(F)c(N3CC(NS(=O)(=O)c4cn(C)cn4)C3)cc2[C@H]1Cc1ccccc1` (relative stereo) [Example 15a, Cis-N-(1-(4-benzyl-7-fluoro-3-(methylamino)chroman-6-yl)azetidin-3-yl)-1-methyl-1H-imidazole-4-sulfonamide] reads “≦5 L/h/Kg”.
As to `CNC1COc2cc(F)c(N3CC(NS(=O)(=O)c4cn(C)cn4)C3)cc2C1Cc1ccccc1` (single isomer, unassigned) [Example 15a, Cis-N-(1-(4-benzyl-7-fluoro-3-(methylamino)chroman-6-yl)azetidin-3-yl)-1-methyl-1H-imidazole-4-sulfonamide], the Ki on human GlyT1c transporter is not above 10 nM.
On the same count and under the same terms, next, `CCS(=O)(=O)NC1CN(c2cc3c(cc2F)OCC(NC)C3Cc2ccccc2)C1` (single isomer, unassigned) [Example 14a, Cis-N-(1-(4-benzyl-7-fluoro-3-(methylamino)chroman-6-yl)azetidin-3-yl)ethanesulfonamide]: not above 100 nM; `CCCS(=O)(=O)NC1CN(c2ccc3c(c2)[C@H](Cc2ccccc2)[C@H](N)CO3)C1` (relative stereo) [Example 20, Cis-N-(1-(3-amino-4-benzylchroman-6-yl)azetidin-3-yl)propane-1-sulfonamide]: not above 100 nM.
Still for that read-out and setting: the result for `CNC1COc2cc(F)c(N3CC(NS(=O)(=O)c4cn(C)cn4)C3)cc2C1Cc1ccccc1` (single isomer, unassigned) [Example 15b, trans-N-(1-(4-benzyl-7-fluoro-3-(methylamino)chroman-6-yl)azetidin-3-yl)-1-methyl-1H-imidazole-4-sulfonamide] reads not above 10 nM; that for `CCS(=O)(=O)NC1CN(c2cc3c(cc2F)OCC(NC)C3Cc2ccccc2)C1` (single isomer, unassigned) [Example 14b, trans-N-(1-(4-benzyl-7-fluoro-3-(methylamino)chroman-6-yl)azetidin-3-yl)ethanesulfonamide], not above 100 nM.
Still for that read-out and setting: the result for `CNC1COc2cc(F)c(N3CC(NS(=O)(=O)c4cn(C)nn4)C3)cc2C1Cc1ccccc1` (single isomer, unassigned) [Example 18b, trans-N-(1-(4-benzyl-7-fluoro-3-(methylamino)chroman-6-yl)azetidin-3-yl)-1-methyl-1H-1,2,3-triazole-4-sulfonamide] reads not above 10 nM.
Take `CCS(=O)(=O)NC1CN(c2cc3c(cc2F)OC[C@H](NC)[C@H]3Cc2ccccc2)C1` (relative stereo) [Example 14b, trans-N-(1-(4-benzyl-7-fluoro-3-(methylamino)chroman-6-yl)azetidin-3-yl)ethanesulfonamide]: the “human mCl” value in series [1] is “≦5 L/h/Kg”.
On to `CN[C@H]1COc2cc(F)c(N3CC(NS(=O)(=O)c4cn(C)nn4)C3)cc2[C@H]1Cc1ccccc1` (relative stereo) [Example 18a, Cis-N-(1-(4-benzyl-7-fluoro-3-(methylamino)chroman-6-yl)azetidin-3-yl)-1-methyl-1H-1,2,3-triazole-4-sulfonamide], for which the “human mCl” value in series [1] is “≦50 L/h/Kg”.
Same read-out and setting: the result for `CN[C@H]1COc2cc(F)c(N3CC(NS(=O)(=O)c4cnn(C)c4)C3)cc2[C@@H]1Cc1ccccc1` (relative stereo) [Example 17b, trans-N-(1-(4-benzyl-7-fluoro-3-(methylamino)chroman-6-yl)azetidin-3-yl)-1-methyl-1H-pyrazole-4-sulfonamide] reads “≦5 L/h/Kg”; that for `CCS(=O)(=O)NC1CN(c2cc3c(cc2F)OC[C@H](NC)[C@@H]3Cc2ccccc2)C1` (relative stereo) [Example 14a, Cis-N-(1-(4-benzyl-7-fluoro-3-(methylamino)chroman-6-yl)azetidin-3-yl)ethanesulfonamide], “≦5 L/h/Kg”.
For `CCCS(=O)(=O)NC1CN(c2cc3c(cc2F)OCC(NC)C3Cc2ccccc2)C1` (single isomer, unassigned) [Example 16a, Cis-N-(1-(4-benzyl-7-fluoro-3-(methylamino)chroman-6-yl)azetidin-3-yl)propane-1-sulfonamide], the Ki at human GlyT1c transporter was not above 10 nM.
Turning to `CCCS(=O)(=O)NC1CN(c2cc3c(cc2F)OC[C@H](NC)[C@H]3Cc2ccccc2)C1` (relative stereo) [Example 16b, trans-N-(1-(4-benzyl-7-fluoro-3-(methylamino)chroman-6-yl)azetidin-3-yl)propane-1-sulfonamide], the “human mCl” value in series [1] is given as “≦5 L/h/Kg”.
As for `CN[C@H]1COc2cc(F)c(N3CC(NS(=O)(=O)CC4CC4)C3)cc2[C@@H]1Cc1ccccc1` (relative stereo) [Example 19b, trans-N-(1-(4-benzyl-7-fluoro-3-(methylamino)chroman-6-yl)azetidin-3-yl)-1-cyclopropylmethanesulfonamide], in series [1], the “human mCl” value is listed as “≦50 L/h/Kg”.
Regarding `CCCS(=O)(=O)NC1CN(c2cc3c(cc2F)OCC(NC)C3Cc2ccccc2)C1` (single isomer, unassigned) [Example 16b, trans-N-(1-(4-benzyl-7-fluoro-3-(methylamino)chroman-6-yl)azetidin-3-yl)propane-1-sulfonamide], at human GlyT1c transporter, the Ki is not above 10 nM.
Consider `CN[C@H]1COc2cc(F)c(N3CC(NS(=O)(=O)CC4CC4)C3)cc2[C@H]1Cc1ccccc1` (relative stereo) [Example 19a, Cis-N-(1-(4-benzyl-7-fluoro-3-(methylamino)chroman-6-yl)azetidin-3-yl)-1-cyclopropylmethanesulfonamide], for which, in series [1], the “human mCl” value is listed as “≦50 L/h/Kg”.
With `CCn1cc(S(=O)(=O)NC2CN(c3cc4c(cc3F)OC[C@@H](N3CCC3)[C@H]4Cc3ccccc3)C2)nn1` (relative stereo) [Example 7, Cis-N-(1-(3-(azetidin-1-yl)-4-benzyl-7-fluorochroman-6-yl)azetidin-3-yl)-1-ethyl-1H-1,2,3-triazole-4-sulfonamide], on human GlyT1c transporter, the Ki was not above 100 nM.
On the same count and under the same terms, next, `CNC1COc2cc(F)c(N3CC(NS(=O)(=O)c4cnn(C)c4)C3)cc2C1Cc1ccccc1` (single isomer, unassigned) [Example 17a, Cis-N-(1-(4-benzyl-7-fluoro-3-(methylamino)chroman-6-yl)azetidin-3-yl)-1-methyl-1H-pyrazole-4-sulfonamide]: not above 10 nM.
Same read-out and setting: the result for `CNC1COc2cc(F)c(N3CC(NS(=O)(=O)c4cn(C)nn4)C3)cc2C1Cc1ccccc1` (single isomer, unassigned) [Example 18a, Cis-N-(1-(4-benzyl-7-fluoro-3-(methylamino)chroman-6-yl)azetidin-3-yl)-1-methyl-1H-1,2,3-triazole-4-sulfonamide] reads not above 10 nM.

These data come from patent US9586945B2, “Aminochromane, aminothiochromane and amino-1,2,3,4-tetrahydroquinoline derivatives, pharmaceutical compositions containing them, and their use in therapy” (AbbVie Deutschland GmbH & Co. KG, priority 2013, dated 2017).
